Measurements taken from ChEMBL document CHEMBL1135441, “Elevation of ligand binding to muscarinic M(2) acetylcholine receptors by bis(ammonio)alkane-type allosteric modulators” (J Med Chem, 2002).

These compounds were tested against Muscarinic acetylcholine receptor M2 (Sus scrofa) (UniProt P06199) (assay: Binding of [3H]N-methylscopolamine at porcine heart Muscarinic acetylcholine receptor M2 and negative log of the equilibrium dissociation constant was reported).
Sequence of Muscarinic acetylcholine receptor M2 (Sus scrofa) (P06199 whole entry, looked up): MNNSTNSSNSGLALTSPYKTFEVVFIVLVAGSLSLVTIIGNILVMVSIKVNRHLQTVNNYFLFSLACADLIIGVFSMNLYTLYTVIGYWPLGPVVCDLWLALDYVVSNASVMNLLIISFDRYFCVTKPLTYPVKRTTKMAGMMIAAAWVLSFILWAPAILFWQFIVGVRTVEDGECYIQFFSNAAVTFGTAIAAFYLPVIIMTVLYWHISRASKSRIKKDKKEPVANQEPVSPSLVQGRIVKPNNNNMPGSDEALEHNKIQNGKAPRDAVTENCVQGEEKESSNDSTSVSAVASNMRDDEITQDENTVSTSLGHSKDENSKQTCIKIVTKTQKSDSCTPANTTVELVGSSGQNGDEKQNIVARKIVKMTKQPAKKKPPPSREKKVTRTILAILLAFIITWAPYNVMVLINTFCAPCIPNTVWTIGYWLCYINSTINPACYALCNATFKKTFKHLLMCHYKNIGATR

Point of comparison: `CC(C)(CN1C(=O)c2ccccc2C1=O)C[N+](C)(C)CCCCCC[N+](C)(C)CCCN1C(=O)c2ccccc2C1=O`, pKA 6.9. Against it:
- Cc1ccc2c(c1)C(=O)N(CCC[N+](C)(C)CCCCCC[N+](C)(C)CC(C)(C)CN1C(=O)c3ccccc3C1=O)C2=O — higher, 7.2
- Cc1ccc2c(c1)C(=O)N(CCC[N+](C)(C)CCCCCC[N+](C)(C)CC(C)(C)CN1C(=O)c3ccc(C)cc3C1=O)C2=O — higher, 7.41
- Cc1ccc2c(c1)C(=O)N(CCC[N+](C)(C)CCCCCC[N+](C)(C)CCCN1C(=O)c3ccccc3C1=O)C2=O — lower, 6.89
- CC(C)(CN1C(=O)c2ccccc2C1=O)C[N+](C)(C)CCCCCC[N+](C)(C)CC(C)(C)CN1C(=O)c2ccccc2C1=O — higher, 7.08
- Cc1ccc2c(c1)C(=O)N(CCC[N+](C)(C)CCCCCC[N+](C)(C)CCCN1C(=O)c3ccc(C)cc3C1=O)C2=O — higher, 7.08
- C[N+](C)(CCCCCC[N+](C)(C)CCCN1C(=O)c2ccccc2C1=O)CCCN1C(=O)c2ccccc2C1=O — lower, 6.53
- Cc1ccc2c(c1)C(=O)N(CC(C)(C)C[N+](C)(C)CCCCCC[N+](C)(C)CC(C)(C)CN1C(=O)c3ccc(C)cc3C1=O)C2=O — higher, 7.21
- Cc1ccc2c(c1)C(=O)N(CC(C)(C)C[N+](C)(C)CCCCCC[N+](C)(C)CCCN1C(=O)c3ccccc3C1=O)C2=O — higher, 7.26
